The values below come from ChEMBL document CHEMBL3792276, “Design and synthesis of diamide-coupled benzophenones as potential anticancer agents” (Eur J Med Chem, 2016).

The source made the active and inactive calls. The calls are words filed in the database; no cut-off is given here. Where only a bound is given, the exact number is not on record here.

Assay [1] relates to Mus musculus. As to the kind of experiment: Decrease in ascites fluid secretion in Swiss albino mouse allografted with mouse DLA cells at 75 mg/kg, ip administered as 3 doses on alternative days post 4 days of tumor implantation. It is filed as functional, organism-based.
Assay [2] is described as follows: (§1) Cytotoxicity against mouse DLA cells after 48 hrs by MTT assay. It counts as functional, cell-based. (In general: Tetrazolium assays rely on reduction of a dye to a coloured formazan, in cell work by metabolically active cells.)
The subject of assay [3] is MCF7. As to the kind of experiment: Cytotoxicity against human MCF7 cells after 48 hrs by MTT assay. It is filed as functional, cell-based.
The subject of assay [4] is A549. In words: Cytotoxicity against human A549 cells after 48 hrs by trypan blue assay. It is filed as functional, cell-based.
Assay [5] can be described thus: Antitumor activity against mouse DLA cells allografted in Swiss albino mouse assessed as induction of tumor regression at 75 mg/kg, ip administered as 3 doses on alternative days post 4 days of tumor implantation. It counts as functional.
The nature of assay [6]: (§2) Cytotoxicity against mouse DLA cells after 48 hrs by trypan blue assay. It counts as functional, cell-based.
The subject of assay [7] is Chorioallantoic membrane. As to the kind of experiment: Antiangiogenic activity in chicken chorioallantoic membrane assessed as inhibition of rVEGF-induced neovascularization measured upto 12 days. It counts as functional. The following applies: Gallus gallus.
Assay [8] can be described thus: Antitumor activity against mouse DLA cells allografted in Swiss mouse assessed as increase in animal survival time at 75 mg/kg, ip administered as 3 doses on alternative days post 4 days of tumor implantation. It is filed as functional.
Assay [9] deals with MCF7. As to the kind of experiment: Cytotoxicity against human MCF7 cells after 48 hrs by LDH leak assay. It is filed as functional, cell-based.
For assay [10], the system named is A549. In words: Cytotoxicity against human A549 cells after 48 hrs by MTT assay. It counts as functional, cell-based.
Assay [11] relates to Mus musculus. In words: Decrease in cell count Swiss albino mouse allografted with mouse DLA cells at 75 mg/kg, ip administered as 3 doses on alternative days post 4 days of tumor implantation. It counts as functional, organism-based.
Assay [12] has as its system A549. In words: Cytotoxicity against human A549 cells after 48 hrs by LDH leak assay. It is filed as functional, cell-based.
Assay [13] can be described thus: Antitumor activity against mouse DLA cells allografted in Swiss albino mouse assessed as inhibition of tumor growth at 75 mg/kg, ip administered as 3 doses on alternative days post 4 days of tumor implantation measured after final dose of drug challenge. It counts as functional. The following applies: 96 h.
Assay [14] can be described thus: (§3) Cytotoxicity against mouse DLA cells after 48 hrs by LDH leak assay. It counts as functional, cell-based.
The species named for assay [15] is Mus musculus. As to the kind of experiment: Antiangiogenic activity against Swiss albino mouse allografted with mouse DLA cells assessed as decrease in peritoneal angiogenesis measured as […]. It counts as functional.
The test system of assay [16] is MCF7. In words: Cytotoxicity against human MCF7 cells after 48 hrs by trypan blue assay. It is filed as functional, cell-based.
The subject of assay [17] is DLA. The assay is described as §1. It counts as functional, cell-based.
Assay [18] has as its system DLA. The description is as §2. It is filed as functional, cell-based.
Assay [19] has as its system DLA. The description is as §3. It is filed as functional, cell-based.

Usually IC50 stands for the concentration that inhibits the measured activity by half. High values mean weaker potency, low ones greater potency. Usually inhibition in vivo stands for the share of the control response that was lost under treatment. For `Cc1cc(C(=O)c2ccc(Br)cc2)ccc1OCC(=O)Nc1ccccc1NC(=O)COc1ccc(C(=O)c2ccccc2C)cc1C`, the inhibition result in assay [1], in [7] and in assay [11] was “Active” throughout. In addition, the IC50 stood at 23 µM in assay [2]; 23 µM in [3] (MCF7, 48 h); 20 µM in assay [4] (A549, 48 h); 23 µM in assay [6]; 23 µM in [9] (MCF7, 48 h); 20 µM in assay [10] (A549, 48 h). The IC50 in assay [12] (A549, 48 h) came to 20 µM; in assay [14] it was 23 µM; in assay [16] (MCF7, 48 h), 23 µM. The “fold change (FC)” value in assay [5] came out at 2.5. Also, the MST in [8] amounted to 37 days. For the same molecule, in [13], the inhibition in vivo at 75 mg/kg came to 80%. Besides, in assay [15], the “inhibition (INH)” value is more than 50%.

In the case of `Cc1cc(C(=O)c2ccccc2)ccc1OCC(=O)Nc1ccccc1NC(=O)COc1c(F)cc(C(=O)c2ccc(Cl)cc2)cc1Cl`, the result in assay [17], in assay [3], in assay [4], in assay [18], in assay [9] and in assay [10] was inactive. Also, the outcome in [12], in assay [19] and in assay [16] was inactive.

Take `Cc1cc(C(=O)c2ccc(Br)cc2)ccc1OCC(=O)Nc1ccccc1NC(=O)COc1c(F)cc(C(=O)c2ccc(Cl)cc2)cc1Cl`: the outcome in assay [17], in assay [3], in assay [4], in assay [18], in [9] and in assay [10] was inactive. Besides, the result in assay [12], in [19] and in [16] was inactive.

As to `Cc1cc(C(=O)c2ccc(Br)cc2)ccc1OCC(=O)Nc1ccccc1NC(=O)COc1ccc(C(=O)c2ccc(Br)cc2)cc1C`, the outcome in assay [17], in [3], in assay [4], in assay [18], in assay [9] and in [10] was inactive. The outcome in assay [12], in [19] and in assay [16] was inactive.

Consider `O=c1[nH]cc(F)c(=O)[nH]1`, for which the result in assay [17], in [3], in [4], in assay [18], in assay [9] and in [10] was inactive. The outcome in [12], in assay [19] and in assay [16] was inactive.

As to `Cc1cc(C(=O)c2ccccc2)ccc1OCC(=O)Nc1ccccc1NC(=O)COc1cc(C)c(C(=O)c2ccccc2)cc1C`, the result in assay [17], in [3], in [4], in assay [18], in [9] and in assay [10] was inactive. Also, the outcome in assay [12], in assay [19] and in assay [16] was inactive.

On to `Cc1cc(C(=O)c2ccccc2)c(C)cc1OCC(=O)Nc1ccccc1NC(=O)COc1cc(C)c(C(=O)c2ccccc2)cc1C`, for which the result in [17], in assay [3], in assay [4], in assay [18], in [9] and in assay [10] was inactive. Also, the outcome in [12], in assay [19] and in assay [16] was inactive.

As to `Cc1cc(C(=O)c2ccccc2)ccc1OCC(=O)Nc1ccccc1NC(=O)COc1ccc(C(=O)c2ccc(Br)cc2)cc1C`, the result in assay [17], in assay [3], in assay [4], in assay [18], in assay [9] and in [10] was inactive. The result in assay [12], in assay [19] and in assay [16] was inactive.

`Cc1cc(C(=O)c2ccccc2)ccc1OCC(=O)Nc1ccccc1NC(=O)COc1ccc(C(=O)c2ccccc2)cc1C`: the result in assay [17], in assay [3], in assay [4], in assay [18], in assay [9] and in assay [10] was inactive. Also, the outcome in [12], in assay [19] and in assay [16] was inactive.

With `Cc1ccc(C(=O)c2ccc(OCC(=O)Nc3ccccc3NC(=O)COc3ccc(C(=O)c4ccccc4)cc3C)c(C)c2)cc1`, the outcome in assay [17], in assay [3], in [4], in [18], in [9] and in [10] was inactive. Further, the result in assay [12], in assay [19] and in [16] was inactive.

`Cc1cc(C(=O)c2ccc(Br)cc2)ccc1OCC(=O)Nc1ccccc1NC(=O)COc1cc(C)c(C(=O)c2ccccc2)cc1C`: the outcome in assay [17], in assay [3], in assay [4], in assay [18], in assay [9] and in assay [10] was inactive. Further, the result in [12], in [19] and in assay [16] was inactive.

As to `Cc1ccc(C(=O)c2ccc(OCC(=O)Nc3ccccc3NC(=O)COc3ccc(C(=O)c4ccc(Br)cc4)cc3C)c(C)c2)cc1`, the result in assay [17], in [3], in assay [4], in [18], in assay [9] and in [10] was inactive. Further, the result in [12], in assay [19] and in assay [16] was inactive.

For the molecule `Cc1cc(C(=O)c2ccccc2)ccc1OCC(=O)Nc1ccccc1NC(=O)COc1ccc(C(=O)c2ccccc2C)cc1C`, the result in [17], in assay [3], in assay [4], in [18], in assay [9] and in [10] was inactive. The result in assay [12], in [19] and in [16] was inactive.
